Test results as given in the supplement of paper PMC10307832.

How the values were obtained:
Assay in all cases: relative viability (nuclei count vs DMSO), 5 days (fraction); higher = more cells survive
OSI-027 + Dasatinib = compound: COc1cccc2cc(-c3nc([C@H]4CC[C@H](C(=O)O)CC4)n4ncnc(N)c34)[nH]c12 [OSI-027] + Cc1nc(Nc2ncc(C(=O)Nc3c(C)cccc3Cl)s2)cc(N2CCN(CCO)CC2)n1 [Dasatinib] (partner 0.075 µM)
Outline: (§1)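 Relative viability was taken as the ratio of nuclei in treated wells to nuclei in vehicle wells. Lung cancer cell lines in 1536-well plates received compounds by pin tool one day after seeding, either one drug alone or a fixed anchor-drug dose plus five library-drug doses (not always all listed) in √10 steps. Nuclei were counted on 4× images after 5 days of treatment, and values are medians of duplicate plates.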

Alpelisib + OSI-027 = compound: Cc1nc(NC(=O)N2CCC[C@H]2C(N)=O)sc1-c1ccnc(C(C)(C)C(F)(F)F)c1 [Alpelisib] + COc1cccc2cc(-c3nc([C@H]4CC[C@H](C(=O)O)CC4)n4ncnc(N)c34)[nH]c12 [OSI-027] (partner 0.5 µM)
Outline: as §1

OSI-027 + Trametinib = compound: COc1cccc2cc(-c3nc([C@H]4CC[C@H](C(=O)O)CC4)n4ncnc(N)c34)[nH]c12 [OSI-027] + CC(=O)Nc1cccc(-n2c(=O)n(C3CC3)c(=O)c3c(Nc4ccc(I)cc4F)n(C)c(=O)c(C)c32)c1 [Trametinib] (partner 0.02 µM)
Outline: as §1

Vemurafenib + Tozasertib = compound: CCCS(=O)(=O)Nc1ccc(F)c(C(=O)c2c[nH]c3ncc(-c4ccc(Cl)cc4)cc23)c1F [Vemurafenib] + Cc1cc(Nc2cc(N3CCN(C)CC3)nc(Sc3ccc(NC(=O)C4CC4)cc3)n2)n[nH]1 [Tozasertib] (partner 0.1 µM)
Outline: as §1

Cell Line	relative viability (OSI-027 + Dasatinib; first compound 0.01 µM)	relative viability (OSI-027 + Dasatinib; first compound 0.03162 µM)	relative viability (OSI-027 + Dasatinib; first compound 0.1 µM)	relative viability (OSI-027 + Dasatinib; first compound 0.3162 µM)	relative viability (OSI-027 + Dasatinib; first compound 1 µM)	relative viability (Alpelisib + OSI-027; first compound 0.04 µM)	relative viability (Alpelisib + OSI-027; first compound 0.1265 µM)	relative viability (Alpelisib + OSI-027; first compound 0.4 µM)	relative viability (Alpelisib + OSI-027; first compound 1.265 µM)	relative viability (Alpelisib + OSI-027; first compound 4 µM)	relative viability (OSI-027 + Trametinib; first compound 0.01 µM)	relative viability (OSI-027 + Trametinib; first compound 0.03162 µM)	relative viability (OSI-027 + Trametinib; first compound 0.1 µM)	relative viability (OSI-027 + Trametinib; first compound 0.3162 µM)	relative viability (OSI-027 + Trametinib; first compound 1 µM)	relative viability (Vemurafenib + Tozasertib; first compound 0.03162 µM)	relative viability (Vemurafenib + Tozasertib; first compound 0.1 µM)	relative viability (Vemurafenib + Tozasertib; first compound 0.3162 µM)	relative viability (Vemurafenib + Tozasertib; first compound 1 µM)
NCI-H1915	0.289	0.307	0.279	0.24	0.145	0.628	0.597	0.61	0.558	0.401	0.284	0.299	0.262	0.233	0.314	0.436	0.439	0.411	0.342
NCI-H2126	0.562	0.56	0.504	0.374	0.45	0.796	0.67	0.667	0.576	0.38	0.54	0.593	0.526	0.447	0.537	0.812	0.786		0.809
EPLC-272H	0.336	0.314	0.36	0.268	0.102	0.214	0.268	0.274	0.23	0.195	0.293	0.278	0.254	0.236	0.239	0.277	0.106	0.281	0.182
LCLC-103H	0.48	0.497	0.434	0.439	0.27	0.486	0.439	0.435	0.372	0.335	0.708	0.645	0.65	0.609	0.689	0.476	0.395	0.493	0.487
NCI-H661	0.664	0.989	0.708	0.602	0.383	0.628	0.668	0.709	0.523	0.493	0.545	0.479	0.468	0.432	0.307	0.325	0.334	0.396	0.358
PC-3 [JPC-3]	0.883	0.895	1.03	0.936	0.494	0.831	0.642	0.68	0.593	0.488	0.616	0.651	0.599	0.603	0.437	0.853		0.904	0.881
NCI-H2087	0.856	0.937	0.923	0.611	0.453	0.503	0.484	0.482	0.342	0.336	0.194	0.235	0.194	0.154	0.142	0.249	0.236		0.132
NCI-H1666	0.825	0.778	0.732	0.733	0.463	0.837	0.826	0.807	0.609	0.536	0.865	0.848	0.843	0.765	0.692	0.575	0.549	0.801	0.579
NCI-H2009	0.271	0.264	0.248	0.213	0.207	0.602	0.574	0.655	0.428	0.429	0.272	0.283	0.2	0.196	0.195	0.698	0.644	0.625	0.648
NCI-H2228	0.506	0.467	0.568	0.445	0.24	0.612	0.53	0.385	0.239	0.152	0.409	0.499	0.507	0.326	0.284	0.228	0.234	0.244	0.21
SK-MES-1	0.293	0.407	0.295	0.25	0.247	0.57	0.541	0.553	0.442	0.351	0.531	0.523	0.478	0.483	0.394	0.831	0.915	0.829	0.751
LCLC-97TM1	0.91	0.907	0.849	0.746	0.573	0.434	0.391	0.243	0.181	0.1	0.168	0.182	0.157	0.147	0.168	0.206	0.268	0.269	0.166
NCI-H596	0.588	0.55	0.606	0.562	0.564	0.629	0.571	0.589	0.457	0.357	0.738	0.792	0.914	0.758	0.538	0.886	0.767	0.813	0.904
BEN	0.304	0.567	0.273	0.218	0.169	0.295	0.299	0.276	0.315	0.245	0.9	0.787	0.709	0.527	0.505	0.515	0.52		0.426
LU99A	0.519	0.513	0.486	0.293	0.259	0.306	0.3	0.296	0.234	0.224	0.581	0.508	0.424	0.342	0.209	0.245	0.256	0.316	0.264
RERF-LC-KJ	0.835	0.776	0.748	0.557	0.349	0.482	0.547	0.507	0.393	0.347	0.709	0.832	0.815	0.667	0.406	0.486	0.487	0.415	0.397
SW 900		0.6	0.641	0.487	0.288	0.527	0.524	0.742	0.568	0.45	0.933	0.866	0.789	0.712	0.608	0.455	0.557	0.585	0.435

Cell Line	relative viability (OSI-027 + Dasatinib; first compound 0.01 µM)	relative viability (OSI-027 + Dasatinib; first compound 0.03162 µM)	relative viability (OSI-027 + Dasatinib; first compound 0.1 µM)	relative viability (OSI-027 + Dasatinib; first compound 0.3162 µM)	relative viability (OSI-027 + Dasatinib; first compound 1 µM)	relative viability (Alpelisib + OSI-027; first compound 0.04 µM)	relative viability (Alpelisib + OSI-027; first compound 0.1265 µM)	relative viability (Alpelisib + OSI-027; first compound 0.4 µM)	relative viability (Alpelisib + OSI-027; first compound 1.265 µM)	relative viability (Alpelisib + OSI-027; first compound 4 µM)	relative viability (OSI-027 + Trametinib; first compound 0.01 µM)	relative viability (OSI-027 + Trametinib; first compound 0.03162 µM)	relative viability (OSI-027 + Trametinib; first compound 0.1 µM)	relative viability (OSI-027 + Trametinib; first compound 0.3162 µM)	relative viability (OSI-027 + Trametinib; first compound 1 µM)	relative viability (Vemurafenib + Tozasertib; first compound 0.03162 µM)	relative viability (Vemurafenib + Tozasertib; first compound 0.1 µM)	relative viability (Vemurafenib + Tozasertib; first compound 0.3162 µM)	relative viability (Vemurafenib + Tozasertib; first compound 1 µM)
NCI-H1944	0.192	0.204	0.191	0.178	0.162	0.365	0.401	0.332	0.281	0.223	0.379	0.399	0.405	0.355	0.298	0.268	0.201	0.274	0.256
HARA	0.227	0.247	0.25	0.253	0.209	0.396	0.287	0.48	0.255	0.164	0.719	0.616	0.556	0.398	0.386	0.0946	0.0784	0.138	0.12
A-427	0.679	0.663	0.573	0.391	0.3	0.509	0.411	0.456	0.351	0.308	0.721	0.747	0.574	0.437	0.329	0.194	0.203	0.238	0.227
NCI-H2023	0.588	0.621	0.505	0.338	0.192	0.357	0.33	0.311	0.192	0.156	0.645	0.506	0.435	0.388	0.272	0.335	0.241	0.273	0.18
NCI-H2347	0.281	0.379	0.205	0.22	0.268	0.484	0.398	0.356	0.3	0.233	0.29	0.25	0.268	0.278	0.205	0.452	0.53	0.507	0.482
NCI-H1975	0.309	0.362	0.334	0.301	0.316	0.675	0.714	0.656	0.326	0.228	0.278	0.386	0.3	0.294	0.264	0.688	0.635	0.45	0.238
HCC-15	0.551	0.656	0.624	0.486	0.366	0.623	0.563	0.589	0.484	0.339	0.317	0.365	0.352	0.283	0.238	0.375	0.4	0.389	0.253
COR-L23	0.513	0.422	0.424	0.386	0.208	0.81	0.713	0.938	0.566	0.492	0.571	0.639	0.525	0.485	0.254	0.14	0.202	0.181	0.143
NCI-H23	0.718	0.899	0.867	0.746	0.46	0.672	0.485	0.521	0.363	0.314	0.313	0.42	0.349	0.26	0.28	0.309	0.352	0.345	0.278
NCI-H441	0.74	0.577	0.706	0.505	0.526	0.656	0.64	0.643	0.296	0.305	0.346	0.434	0.486	0.362	0.253	0.708	0.561	0.476	0.591
NCI-H1650	0.313	0.347	0.255	0.279	0.229	0.637	0.561	0.529	0.433	0.374	0.485	0.504	0.614	0.6	0.408		0.277		0.272
NCI-H1734	0.473	0.408	0.45	0.388	0.282	0.513		0.455	0.278	0.201	0.667	0.687	0.659	0.586	0.42	0.269	0.246	0.281	0.269
HCC-366	0.679	0.708	0.61	0.477	0.395	0.867	0.877	0.762	0.473	0.355	0.333	0.433	0.454	0.282	0.195	0.0795	0.0611	0.0563	0.0677
LXF-289	0.175	0.216	0.198	0.182	0.102	0.725	0.626	0.685	0.567	0.427	0.681	0.707	0.752	0.612	0.357	0.195	0.172	0.149	0.169
ChaGo-K-1	0.515	0.618	0.5	0.549	0.474	0.543	0.592	0.49	0.394	0.342	0.919	0.903	0.833	0.882	0.661	0.22	0.195	0.257	0.204
NCI-H838	0.283	0.276	0.224	0.227	0.239	0.386	0.366	0.317	0.244	0.211	0.455	0.532	0.436	0.317	0.206	0.233	0.293		0.285
